Laboratory results: PubChem BioAssay (NCI)
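1) Cells in 96-well plates. 2) Compound, 48 h, 5 concentrations. 3) Linear interpolation between surrounding doses. 4) Unreached endpoint = highest concentration. GI50: concentration for 50% inhibition of growth. The concentration for full growth arrest is given as TGI.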

Assays:
Assay in all cases: inhibition of tumour cell growth, NCI panel, 48 h
MCF7 breast = test system: MCF7 breast
NCI-H226 lung = test system: NCI-H226 lung
NCI/ADR-RES ovarian = test system: NCI/ADR-RES ovarian
SF-539 CNS = test system: SF-539 CNS
ACHN renal = test system: ACHN renal

Row | SMILES | TGI (MCF7 breast) [µM] | TGI (NCI-H226 lung) [µM] | TGI (NCI/ADR-RES ovarian) [µM] | TGI (SF-539 CNS) [µM] | GI50 (ACHN renal) [µM] | TGI (ACHN renal) [µM] | GI50 (MCF7 breast) [µM] | GI50 (NCI-H226 lung) [µM] | GI50 (NCI/ADR-RES ovarian) [µM] | GI50 (SF-539 CNS) [µM]
1 | CC(=O)OC(C)c1cc2c(s1)C(=O)c1sccc1C2=O (centres undefined) | 3.9 | 3.94 | 5.08 | 0.689 |  |  |  |  |  | 
2 | Oc1ccc(-c2nnc3sc(-c4ccc(F)cc4)nn23)cc1 | > 100 | > 100 | > 100 | > 100 | 24.7 | > 100 | 59.7 | 49.6 | 43.6 | 36.5
